For one series, the system named is LN18. Put plainly: Cytotoxicity propidium iodide assay, LN18. The note with it: Homo sapiens, LN-18; LN18 (glioblastoma), 48 hours treatment; read-out: IC50 Values in μM, C5b. In kind it is cell-based. The procedure: (§1) The assay was designed as in the reference, Anticancer Drugs, 2002, 13, 1-8, the disclosure of which is incorporated herein by reference for the teaching of the assay.
(§2) Cells from cell lines (ATCC) as mentioned in the table given below were seeded at a density of 3000 cells/well in a white opaque 96-well plate. Following incubation at 37° C./5% CO2 for a period of 18-24 hours, the cells were treated with various concentrations (stock solution was prepared in DMSO and subsequent dilutions were made in media as per ATCC guidelines) of the compounds of the present invention for a period of 48 hours. At the end of treatment, the culture medium was discarded, the cells were washed with 1×PBS and 200 μL of […] propidium iodide was added to each well. The plates were frozen at 70° C. overnight. For analysis, the plates were warmed to RT, allowed to thaw and were read in PoleStar fluorimeter with the fluorescence setting. The percentage of viable cells in the non-treated set of wells was considered to be 100 and the percentage viability following treatment was calculated accordingly. IC50 values were calculated from graphs plotted using these percentages. IC50 values for certain compounds of present invention are depicted in Table 1 and % Inhibition of certain compounds of present invention are depicted in Table 2.

The test system of series [1] is hPBMC. As to the kind of experiment: MTS toxicity assay in parallel to Con-A-induced IFN-γ assay. The note with it: Con-A experiment. In kind it is cell-based, human. The procedure: (§3) Peripheral blood was collected from normal healthy volunteers after informed consent. Peripheral blood mononuclear cells (hPBMC) were harvested using Ficoll-Hypaque density gradient centrifugation (1.077 g/mL; Sigma Aldrich). hPBMCs were resuspended in RPMI 1640 culture medium (Gibco BRL, Pasley, UK) containing 10% FCS, 100 U/mL penicillin (Sigma Chemical Co. St Louis, Mo.) and […] streptomycin (Sigma Chemical Co. St Louis, Mo.) at 1×10^6 cells/mL. 1×10^5 hPBMCs/well were pre-treated with 0.025 μM of compounds of present invention or 0.5% DMSO (vehicle control) for 30 minutes at 37° C. Subsequently, these cells were stimulated with 1 μg/mL concanavalin A (Sigma Chemical Co., St. Louis, Mo.). Following 18 hours of incubation at 37° C., supernatants were collected and stored at −70° C. until assayed for human IFN-γ by ELISA as described by the manufacturer (OptiEIA ELISA sets, BD BioSciences). In every experiment, cyclosporin (1 μM) was used as a positive control for inhibiting induced IFN-γ production. In all experiments, the toxicity of test compounds was ascertained, in parallel, using the MTS (3-(4,5-dimethylthiazol-2-yl)-5-(3-carboxymethoxyphenyl)-2-(4-sulfonyl)-2H-tetrazolium) assay as described in Am. J. Physiol. Cell Physiol., 2003, 285, C813-C822.
A general note: Tetrazolium dyes change colour on reduction, which living cells bring about.

Another series deals with MDA MB 231. As to the kind of experiment: Cytotoxicity propidium iodide assay, MDA MB 231. In kind it is cell-based. The note with it: Homo sapiens; MDA MB 231 (breast), 48 hours treatment; read-out: IC50 Values in μM, C3a. The procedure: as §1
as §2, with “The plates were frozen at 70° C. overnight.” left out

The subject of the next series is T315I. As to the kind of experiment: Cytotoxicity propidium iodide assay, T315I. To be noted: T315I (CML), 48 hours treatment; read-out: IC50 Values in μM, C6b. Format: cell-based. The procedure:
as §1, §2

The subject of series [2] is hPBMC. Put plainly: MTS toxicity assay in parallel to anti-CD3/anti-CD28 cytokine assay. Format: cell-based, human. To be noted: anti-CD3/anti-CD28 experiment. The procedure:
(§4) hPBMC stimulation: Peripheral blood was collected from normal healthy volunteers after informed consent. Peripheral blood mononuclear cells (hPBMC) were harvested using Ficoll-Hypaque density gradient centrifugation (1.077 g/mL; Sigma Aldrich). hPBMCs were resuspended in RPMI 1640 culture medium (Gibco BRL, Pasley, UK) containing 10% FCS, 100 U/mL penicillin (Sigma Chemical Co. St Louis, Mo.) and […] streptomycin (Sigma Chemical Co. St Louis, Mo.) at 1.25×10^6 cells/mL of assay medium. 2.5×10^5 hPBMCs were added per well of 96-well plate coated with or without anti-CD3/anti-CD28 mAbs. Simultaneously, 0.025 μM of compounds of the present invention or 0.5% DMSO (vehicle control) were added to appropriate wells. The cells were then incubated for 18 hours at 37° C., 5% CO2 following which supernatants were collected, stored at […] and assayed later for TNF-α, IL-6 and IFN-γ by ELISA (OptiEIA ELISA sets; BD Biosciences). In every experiment, each condition was run in triplicate wells. In all experiments, the toxicity of test compounds was ascertained, in parallel, using the MTS (3-(4,5-dimethylthiazol-2-yl)-5-(3-carboxymethoxyphenyl)-2-(4-sulfonyl)-2H-tetrazolium) assay as described in Am. J. Physiol. Cell Physiol., 2003, 285, C813-C822.

The test system of a further series is IFN-γ. Put plainly: Con-A-induced IFN-γ production from hPBMC. The note with it: Homo sapiens, concanavalin A 1 μg/mL, 18 hours. Format: cell-based. The procedure:
Con-A-Induced IFN-γ Production from hPBMC
as §3

The test system of another series is IL-6. Put plainly: Anti-CD3 mAb and anti-CD28 mAb-induced cytokine production assay, IL-6. In kind it is cell-based. To be noted: Homo sapiens, hPBMC, anti-CD3/anti-CD28, 18 hours. The procedure: Anti-CD3 mAb and Anti-CD28 mAb-Induced Cytokine Production Assay
Preparation of anti-CD3/anti-CD28 coated plates: 96 well plates were coated with goat anti-mouse IgG, Fc (Millipore) at a concentration of 16.5 μg/mL in coating buffer ([…] NaHCO3, 3.56 g Na2CO3, pH 9.5). Following overnight incubation at 4° C., the plates were washed and then incubated with anti-CD3 (3.5 μg/mL; R&D Systems) and anti-CD28 (35 ng/mL; R&D Systems) cocktail for 3 hours. Subsequently, the plates were washed, and used for hPBMC stimulation.
as §4

The record followed here is patent US20130310374A1, “Substituted Imidazoquinoline Derivatives” (PIRAMAL ENTERPRISES LIMITED`, priority 2010, published 2013).

The term IC50 denotes the concentration that inhibits the measured activity by half. As usually defined, the inhibition is the percentage by which the read-out fell short of the control. Higher therefore signals a response far below the control.

Regarding `CC(C)(C#N)c1ccc(-n2c(=O)n(CC#N)c3cnc4ccc(-c5cnc(N)c(C(F)(F)F)c5)cc4c32)cn1` [Example 16, 2-(5-(8-(6-Amino-5-(trifluoromethyl)pyridin-3-yl)-3-(cyanomethyl)-2-oxo-2,3-dihydro-1H-imidazo[4,5-c]quinolin-1-yl)pyridin-2-yl)-2-methylpropanenitrile], the IC50 in the series on LN18 is 0.44 µM; with MDA MB 231 it was 0.07 µM; in the series with T315I it was 2.13 µM. For the same compound, the “% Toxicity at 0.025 μM” value with hPBMC [1] stood at 3%; in the series on hPBMC [2], 0%. For the same compound, the inhibition at 0.025 µM in the series on IFN-γ was determined as 31%; with IL-6, 75%.

`COc1ccc(-n2c(=O)n(C)c3cnc4ccc(-c5cnc(N)c(C(F)(F)F)c5)cc4c32)cn1` [Example 19, 8-(6-Amino-5-(trifluoromethyl)pyridin-3-yl)-1-(6-methoxypyridin-3-yl)-3-methyl-1H-imidazo[4,5-c]quinolin-2(3H)-one]: the results for the IC50 in the series on LN18, with MDA MB 231 and in the series on T315I were 0.096 µM, 0.17 µM and 0.049 µM, respectively. Besides, the “% Toxicity at 0.025 μM” value in the series with hPBMC [1] is reported as 18%; in the series with hPBMC [2], 19%. Also, the inhibition at 0.025 µM in the series on IFN-γ stood at 93%; with IL-6 it was 86%.

For the compound `Cn1c(=O)n(-c2ccc(C(C)(C)C#N)nc2)c2c3cc(-c4cnc(N)c(C(F)(F)F)c4)ccc3ncc21` [Example 3, 2-(5-(8-(6-Amino-5-(trifluoromethyl)pyridin-3-yl)-3-methyl-2-oxo-2,3-dihydro-1H-imidazo[4,5-c]quinolin-1-yl)pyridin-2-yl)-2-methylpropanenitrile], the IC50 is 0.144 µM in the series with LN18, 0.014 µM in the series with MDA MB 231 and 0.32 µM in the series on T315I. The “% Toxicity at 0.025 μM” value with hPBMC [1] was 21%; with hPBMC [2], 24%. In addition, the inhibition at 0.025 µM worked out at 98% in the series on IFN-γ and 84% in the series with IL-6.

`Cn1c(=O)n(-c2ccc(C(C)(C)C#N)nc2)c2c3cc(-c4cnc5ccccc5c4)ccc3ncc21` [Example 2, 2-Methyl-2-(5-(3-methyl-2-oxo-8-(quinolin-3-yl)-2,3-dihydro-1H-imidazo[4,5-c]quinolin-1-yl)pyridin-2-yl)propanenitrile]: the IC50 stood at 0.33 µM in the series on LN18 and 0.07 µM in the series on MDA MB 231. The “% Toxicity at 0.025 μM” value in the series on hPBMC [1] and with hPBMC [2] was 12% throughout. Moreover, the inhibition at 0.025 µM was 58% in the series on IFN-γ and 43% with IL-6.
